According to ChEMBL document CHEMBL1909046, “DrugMatrix in vitro pharmacology data”:
pIC50, pKi: −log10 of the molar value.

Columns and labels:
[1] = molecular target: Sigma non-opioid intracellular receptor 1 (Homo sapiens, UniProt Q99720); assay: DRUGMATRIX: Sigma1 radioligand binding (ligand: [3H] Haloperidol); assay type: cell membranes, Jurkat, Membrane; conditions: Not Active = under 50% inhibition at 10 µM; for IC50: jurkat; for pIC50: read-out: IC50; for pKi: read-out: Ki
Cytochrome P450 2C19 = Cytochrome P450 2C19 (Homo sapiens, UniProt P33261); conditions: bti-tn-5b1-4; note: in other assays of this panel Not Active means under 50% inhibition at 10 µM
Sequence of Cytochrome P450 2C19 (P33261 whole entry): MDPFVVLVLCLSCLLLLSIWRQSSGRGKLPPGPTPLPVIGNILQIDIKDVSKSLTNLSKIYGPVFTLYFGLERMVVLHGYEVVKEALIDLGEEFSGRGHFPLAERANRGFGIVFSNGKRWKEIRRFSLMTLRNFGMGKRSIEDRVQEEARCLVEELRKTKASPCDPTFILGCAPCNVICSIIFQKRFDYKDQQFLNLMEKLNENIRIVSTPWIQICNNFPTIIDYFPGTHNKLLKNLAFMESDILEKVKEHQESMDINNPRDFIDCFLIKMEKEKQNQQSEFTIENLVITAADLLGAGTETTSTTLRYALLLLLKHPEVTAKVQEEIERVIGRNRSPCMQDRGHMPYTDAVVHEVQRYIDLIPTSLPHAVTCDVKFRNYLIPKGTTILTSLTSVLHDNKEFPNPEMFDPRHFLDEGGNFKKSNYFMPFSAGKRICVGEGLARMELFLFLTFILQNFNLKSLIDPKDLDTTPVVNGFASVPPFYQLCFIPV

[2] = molecular target: T1, Type-2 angiotensin II receptor (Homo sapiens, UniProt P50052); assay type: cell-based; conditions: cho-k1; note: in other assays of this panel Not Active means under 50% inhibition at 10 µM
T1 sequence (P50052 whole entry): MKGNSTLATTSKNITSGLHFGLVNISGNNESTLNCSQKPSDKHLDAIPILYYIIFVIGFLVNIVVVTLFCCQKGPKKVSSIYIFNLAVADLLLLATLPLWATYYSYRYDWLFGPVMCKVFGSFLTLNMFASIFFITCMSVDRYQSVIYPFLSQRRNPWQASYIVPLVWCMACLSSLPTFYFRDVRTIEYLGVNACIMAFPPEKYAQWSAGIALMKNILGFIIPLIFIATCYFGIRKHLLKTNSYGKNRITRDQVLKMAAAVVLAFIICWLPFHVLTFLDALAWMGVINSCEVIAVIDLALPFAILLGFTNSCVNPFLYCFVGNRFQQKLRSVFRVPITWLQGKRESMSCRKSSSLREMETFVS

[3] = DRUGMATRIX: Glutamate, NMDA, Phencyclidine radioligand binding (ligand: [3H] TCP); assay type: cell membranes, Rattus norvegicus, Wistar, Cerebral cortex, Membrane; conditions: Not Active = under 50% inhibition at 10 µM
Histamine H2 receptor = Histamine H2 receptor (Homo sapiens, UniProt P25021); assay type: cell membranes, CHO-K1, Membrane; conditions: cho-k1; note: in other assays of this panel Not Active means under 50% inhibition at 10 µM
Sequence of Histamine H2 receptor (P25021 whole entry): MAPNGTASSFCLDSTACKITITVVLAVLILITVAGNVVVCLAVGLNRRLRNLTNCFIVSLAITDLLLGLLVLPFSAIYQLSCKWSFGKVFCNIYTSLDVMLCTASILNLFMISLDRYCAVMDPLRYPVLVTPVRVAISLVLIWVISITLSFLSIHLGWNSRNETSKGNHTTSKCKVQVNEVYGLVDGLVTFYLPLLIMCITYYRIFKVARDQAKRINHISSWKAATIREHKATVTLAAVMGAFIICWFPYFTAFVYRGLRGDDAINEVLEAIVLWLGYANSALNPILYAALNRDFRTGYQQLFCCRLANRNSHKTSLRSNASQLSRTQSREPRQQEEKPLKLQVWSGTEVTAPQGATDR

Melanocortin receptor 3 = Melanocortin receptor 3 (Homo sapiens, UniProt P41968); assay type: cell membranes, HEK293, Membrane; conditions: hek293; note: in other assays of this panel Not Active means under 50% inhibition at 10 µM
Sequence of Melanocortin receptor 3 (P41968 whole entry): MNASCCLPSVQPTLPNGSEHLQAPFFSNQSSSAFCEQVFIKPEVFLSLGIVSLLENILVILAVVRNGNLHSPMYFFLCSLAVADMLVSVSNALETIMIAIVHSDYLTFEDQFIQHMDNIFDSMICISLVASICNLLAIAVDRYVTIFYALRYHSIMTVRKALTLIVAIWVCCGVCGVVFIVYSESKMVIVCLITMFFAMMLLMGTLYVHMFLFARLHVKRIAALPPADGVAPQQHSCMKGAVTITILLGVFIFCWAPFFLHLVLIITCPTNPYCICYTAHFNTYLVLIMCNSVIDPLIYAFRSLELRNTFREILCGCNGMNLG

[4] = molecular target: Delta-type opioid receptor (Homo sapiens, UniProt P41143); assay type: cell membranes, Membrane; conditions: hek293; note: in other assays of this panel Not Active means under 50% inhibition at 10 µM
Sequence of Delta-type opioid receptor (P41143 whole entry): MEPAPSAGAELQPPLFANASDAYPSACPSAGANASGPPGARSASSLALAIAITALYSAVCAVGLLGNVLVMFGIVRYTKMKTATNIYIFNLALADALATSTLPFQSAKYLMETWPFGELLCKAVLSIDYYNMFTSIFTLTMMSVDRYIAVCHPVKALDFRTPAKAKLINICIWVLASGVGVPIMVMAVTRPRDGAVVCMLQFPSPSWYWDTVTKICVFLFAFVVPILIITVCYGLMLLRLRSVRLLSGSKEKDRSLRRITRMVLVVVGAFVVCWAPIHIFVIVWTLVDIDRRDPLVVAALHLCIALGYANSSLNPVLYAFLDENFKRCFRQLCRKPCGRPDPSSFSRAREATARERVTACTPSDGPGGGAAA

Sequence of Sigma non-opioid intracellular receptor 1 (Q99720 whole entry): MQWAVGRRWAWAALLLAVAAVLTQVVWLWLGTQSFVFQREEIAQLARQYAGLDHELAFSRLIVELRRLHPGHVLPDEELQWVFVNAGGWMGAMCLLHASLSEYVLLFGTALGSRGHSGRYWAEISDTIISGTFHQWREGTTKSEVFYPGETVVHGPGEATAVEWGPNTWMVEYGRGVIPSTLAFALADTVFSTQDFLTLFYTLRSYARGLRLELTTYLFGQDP

SMILES | IC50 [1] | IC50 (Cytochrome P450 2C19) | Ki (Cytochrome P450 2C19) | IC50 [2] | IC50 [3] | Ki [3] | IC50 (Histamine H2 receptor) | IC50 (Melanocortin receptor 3) | IC50 [4] | pIC50 [1] | pKi [1]
CC1(C)S[C@@H]2[C@H](NC(=O)[C@H](N)c3ccccc3)C(=O)N2[C@H]1C(=O)O [AMPICILLIN] | Not Active | Not Active | Not Active | Not Active | Not Active | Not Active | Not Active | Not Active | Not Active | – | –
COc1ccc(C2C(=O)c3ccccc3C2=O)cc1 [ANISINDIONE] | Not Active | Not Active | Not Active | Not Active | Not Active | Not Active | Not Active | Not Active | Not Active | – | –
O=C1O[C@H]([C@@H](O)CO)C(O)=C1O [ASCORBIC ACID] | Not Active | Not Active | Not Active | Not Active | Not Active | Not Active | Not Active | Not Active | Not Active | – | –
CC(C(=O)O)c1ccc2oc(-c3ccc(Cl)cc3)nc2c1 (stereo unspecified) [BENOXAPROFEN] | Not Active | Not Active | Not Active | Not Active | Not Active | Not Active | Not Active | Not Active | Not Active | – | –
COc1ccc2cc3[n+](cc2c1OC)CCc1cc2c(cc1-3)OCO2.[Cl-] [BERBERINE CHLORIDE] | – | Not Active | Not Active | Not Active | Not Active | Not Active | Not Active | Not Active | Not Active | 5.89 | 6.27
O=C(O)CCNC(=O)c1ccccc1 [BETAMIPRON] | Not Active | Not Active | Not Active | Not Active | Not Active | Not Active | Not Active | Not Active | Not Active | – | –
CC(=O)Oc1ccc(C(c2ccc(OC(C)=O)cc2)c2ccccn2)cc1 [BISACODYL] | Not Active | Not Active | Not Active | Not Active | Not Active | Not Active | Not Active | Not Active | Not Active | – | –
Cc1cc2c(OCC(CNC(C)(C)C)OC(=O)c3ccccc3)cccc2[nH]1 (stereo unspecified) [BOPINDOLOL] | Not Active | Not Active | Not Active | Not Active | Not Active | Not Active | Not Active | Not Active | Not Active | – | –
Brc1c(NC2=NCCN2)ccc2nccnc12 [BRIMONIDINE] | Not Active | Not Active | Not Active | Not Active | Not Active | Not Active | Not Active | Not Active | Not Active | – | –
CN(C)[C@@H]1C(O)=C(C(N)=O)C(=O)[C@@]2(O)C(O)=C3C(=O)c4c(O)ccc(Cl)c4[C@@](C)(O)[C@H]3C[C@@H]12 [CHLORTETRACYCLINE] | Not Active | Not Active | Not Active | Not Active | Not Active | Not Active | Not Active | Not Active | Not Active | – | –
COc1cc(N)c(Cl)cc1C(=O)NC1CCN(CCCOc2ccc(F)cc2)CC1OC (stereo unspecified) [CISAPRIDE] | – | Not Active | Not Active | Not Active | Not Active | Not Active | Not Active | Not Active | Not Active | 6.00 | 6.38
